Literature values, collected in patent US12691078B2, “Stable compositions of functional ingredients and methods of making the same” (Nulixir Inc., priority 2021, dated 2026).

Tests used:
[1] = reference solvents n-octanol and water; pH=7 unless stated otherwise; mostly given as approximate (~=)
[2] = ethanol extraction of Golden Seal

## schisandroside C
[1]
  logP: ~1.6

## COc1ccc(C23C=CC(O)CC2N(C)CC3)cc1OC (stereo not drawn) [mesembrenol]
[1]
  logP: ~2.4

## CC(C)=CCC[C@](C)(O[C@@H]1O[C@H](CO)[C@@H](O)[C@H](O)[C@H]1O)[C@H]1CC[C@]2(C)[C@@H]1[C@H](O)C[C@@H]1[C@@]3(C)CC[C@H](O)C(C)(C)[C@@H]3[C@@H](O[C@@H]3O[C@H](CO)[C@@H](O)[C@H](O)[C@H]3O)C[C@]12C [ginsenoside rg1]
[1]
  logP: ~0.8

## hericerin
[1]
  logP: ~6.4

## CC1=C(CO)C(=O)O[C@@H]([C@@H](C)[C@H]2CC[C@H]3[C@@H]4C[C@H](Cl)[C@]5(O)[C@@H](O)C=CC(=O)[C@]5(C)[C@H]4CC[C@]23C)C1 [6a-chloro-5b-hydroxywithaferin A]
[1]
  logP: ~3.2

## COc1ccc([C@@]23C=CC(=O)C[C@@H]2N(C)CC3)cc1OC [mesembrenone]
[1]
  logP: ~1.3

## (R)-kawain
[1]
  logP: ~2.7

## COc1cc2c(c(OC)c1OC)-c1c(cc(OC)c(OC)c1OC)C[C@](C)(O)[C@@H](C)C2 [schisandrol A]
[1]
  logP: ~3.4

## N#C[C@@]1(O[C@@H]2O[C@H](CO)[C@@H](O)[C@H](O)[C@H]2O)C=C[C@@H](O)C1 [tetraphyllin B]
[1]
  logP: ~−2.5

## COc1cc([C@H]2Oc3cc(O)c4c(=O)c(O)c(-c5ccc(O)cc5)oc4c3O[C@@H]2CO)ccc1O [rhodiolin]
[1]
  logP: ~2

## CC(C)=C[C@@H]1CO[C@]23C[C@]4(CO2)[C@H](CC[C@@H]2[C@@]5(C)CC[C@H](O[C@@H]6OC[C@H](O)[C@H](O[C@@H]7O[C@H](CO)[C@@H](O)[C@H](O)[C@H]7O)[C@H]6O[C@@H]6O[C@@H](CO)[C@H](O)[C@H]6O)C(C)(C)[C@@H]5CC[C@]24C)[C@H]3[C@@]1(C)O [bacopasaponin C]
[1]
  logP: ~2

## COc1cc(/C=C/c2ccccc2)oc(=O)c1 [5,6-dehydrokawain]
[1]
  logP: ~2.9

## CC(=O)OC1C=CC(=O)N(C(=O)CCc2ccccc2)C1 (stereo not drawn) [pipermethystine]
[1]
  logP: ~1.8

## herinacine A
[1]
  logP: ~2.5

## COc1c2c(cc3c1-c1c(cc4c(c1OC)OCO4)C[C@H](C)[C@H](C)C3)OCO2 [(−)-schisandrin C]
[1]
  logP: ~3.5

## COc1cc2c(c(OC)c1OC)-c1c(cc(OC)c(OC)c1OC)C[C@](C)(O)[C@@H](C)C2 [(+)-schisandrin]
[1]
  logP: ~5

## bacopaside B
[1]
  logP: ~2.8

## CC(C)=CCC[C@](C)(O[C@@H]1O[C@H](CO[C@@H]2O[C@H](CO)[C@@H](O)[C@H](O)[C@H]2O)[C@@H](O)[C@H](O)[C@H]1O)[C@H]1CC[C@]2(C)[C@@H]1[C@H](O)C[C@@H]1[C@@]3(C)CC[C@H](O[C@@H]4O[C@H](CO)[C@@H](O)[C@H](O)[C@H]4O[C@@H]4O[C@H](CO)[C@@H](O)[C@H](O)[C@H]4O)C(C)(C)[C@@H]3CC[C@]12C [ginsenoside rb1]
[1]
  logP: ~−1

## COc1cc(/C=C\c2ccc(OC)c(O)c2)oc(=O)c1 [11-hydroxyyangonin]
[1]
  logP: ~2.2

## COc1ccc(CCc2cc(OC)cc(=O)o2)cc1 [7,8-dihydroyangonin]
[1]
  logP: ~2.9

## COc1ccc([C@@]23CCC(=O)C[C@@H]2N(C)CC3)cc1OC [mesembrine]
[1]
  logP: ~1.5

## CC(C)=C[C@H]1C[C@](C)(O)[C@H]2[C@H]3CC[C@@H]4[C@@]5(C)CC[C@H](O[C@@H]6O[C@H](CO)[C@@H](O)[C@H](O[C@@H]7O[C@H](CO)[C@@H](O)[C@H](O)[C@H]7O)[C@H]6O[C@@H]6O[C@@H](CO)[C@H](O)[C@H]6O)C(C)(C)[C@@H]5CC[C@@]4(C)[C@@]34CO[C@@]2(C4)O1 [bacoside A3]
[1]
  logP: ~2.1

## COc1ccc2cc3[n+](cc2c1OC)CCc1cc2c(cc1-3)OCO2 [berberine]
[2]
  solubility in ethanol as a function of water content: decreases rapidly with water content

## tortuosomine
[1]
  logP: ~3

## CC(C)=C[C@H]1C[C@](C)(O)[C@@H]2[C@H]3CC[C@@H]4[C@@]5(C)CC[C@H](O[C@@H]6OC[C@H](O)[C@H](O[C@@H]7O[C@H](CO)[C@@H](O)[C@H](O)[C@H]7O)[C@H]6O[C@@H]6O[C@@H](CO)[C@H](O)[C@H]6O)C(C)(C)[C@@H]5CC[C@@]4(C)[C@@]34CO[C@@]2(C4)O1 [bacopaside X]
[1]
  logP: ~2.2

## COC1=CC(=O)O[C@@H](CCc2ccc3c(c2)OCO3)C1 [7,8-dihydromethysticin]
[1]
  logP: ~2.2

## COc1nc2c(c(=O)n1C)n(C)c(=O)n2C [methylliberine]
[1]
  logP: ~−0.083

## COc1cc2c(c(OC)c1OC)-c1c(cc3c(c1OC)OCO3)CC(C)C(C)C2 (single isomer, unassigned; (-)) [(−)-schisandrin B]
[1]
  logP: ~4

## COC1=CC(=O)OC(/C=C/c2ccc(OC)cc2)C1 (stereo not drawn) [5,6-dihydroyangonin]
[1]
  logP: ~2.5

## COc1cc2c(c(OC)c1OC)-c1c(cc(OC)c(OC)c1OC)C[C@H](C)[C@H](C)C2 [(−)-schisandrin A]
[1]
  logP: ~3.6
